Results: patent US12617790B2, “Mitragynine analogs and uses thereof” (Memorial Sloan-Kettering Cancer Center, priority 2015, dated 2026)
Read-outs that look alike come from different tables or passages of the source.

Tests used:
DOR-1 [1] = molecular target: T1, DOR-1 (Mus musculus, UniProt P32300); assay: Competition binding against 125I-IBNtxA in DOR-1/CHO membranes
T1 construct: expressed in transfected cells; host or cells: CHO

DOR-1 [2] = molecular target: T1, DOR-1; assay: [35S]GTPγS functional assay, DOR-1 transfected cell membranes; assay type: biochemical; details: antagonism of 100 nM DPDPE; read-out: DOR-1 IC50
CD1 mice [3] = assay: Respiratory depression assessment (MouseOx pulse oximeter breath rate); details: morphine 10 mg/kg
KOR-1 [4] = molecular target: T2, KOR-1 (Mus musculus, UniProt P33534); assay: Competition binding against 125I-IBNtxA in KOR-1/CHO membranes
T2 construct: expressed in transfected cells; host or cells: CHO

KOR-1 [5] = molecular target: T2, KOR-1; assay: [35S]GTPγS functional assay, KOR-1 transfected cell membranes; assay type: biochemical
MOR-1 [6] = molecular target: T3, MOR-1 (Mus musculus, UniProt P42866); assay: [35S]GTPγS functional assay, MOR-1 transfected cell membranes; assay type: biochemical; parameters: Emax: dose or concentration left out as unconfirmed; details: for Emax: read-out: MOR-1 Emax (%)
T3 construct: expressed in transfected cells; host or cells: CHO

MOR-1 [7] = molecular target: T3, MOR-1; assay: Competition binding against 125I-IBNtxA in MOR-1/CHO membranes
CD1 mice [8] = assay: Radiant heat tail flick analgesia, sc, CD1 mice; assay type: in vivo; details: Mus musculus, 0.25 h, ED50, cumulative dose-response, tail flick 15 min after sc dose
CD1 mice [9] = assay: Radiant heat tail flick analgesia, icv, CD1 mice; assay type: in vivo, mouse; details: ED50, cumulative dose-response, tail flick 15 min after icv dose
CD1 mice [10] = assay: Reversal of tail flick antinociception by selective opioid antagonists, CD1 mice; assay type: in vivo, mouse; details: VM1501 1.0 mg/kg sc, VM1502 1.5 mg/kg sc
129/Sv mice = assay: Tail flick antinociception icv in 129/Sv mice (wild type and Exon11 knockout); assay type: in vivo, mouse; details: 15 min
mice [11] = assay: Gastrointestinal motility assay (charcoal meal transit); details: FIG. 8D: VM1501 0.5 and 1 mg/kg, 30 min
mice [12] = assay: Antisense oligodeoxynucleotide downregulation, tail flick antinociception; assay type: in vivo, mouse; details: antisense icv days 1, 3, 5, test day 6; VM1501 1.0 mg/kg sc, VM1502 1.5 mg/kg sc
[13] = 125I-IBNtxA (0.1 nM), CHO membranes, cloned mouse receptor, read-out: Affinity (Ki nM) KOR-1
[14] = antagonism of 100 nM U50,488H, read-out: KOR-1 IC50
[15] = agonist stimulation of [35S]GTPγS binding, read-out: MOR-1 EC50
[16] = 125I-IBNtxA (0.1 nM), CHO membranes, cloned mouse receptor, read-out: Affinity (Ki nM) DOR-1

Compound | IC50 (DOR-1 [2]) | Ki (KOR-1 [4]; [13]) | IC50 (KOR-1 [5]; [14]) | EC50 (MOR-1 [6]; [15]) | Ki (MOR-1 [7]) | ED50 (CD1 mice [8]) | Ki (DOR-1 [1]; [16]) | Emax (MOR-1 [6]) | Analgesia icv (CD1 mice [9]) | also measured
Oc1ccc2c3c1O[C@H]1c4[nH]c5ccccc5c4C[C@@]4(O)[C@@H](C2)N(CC2CC2)CC[C@]314 [NTI, Naltrindole, reference compound] | 0.72 nM |  |  |  |  |  |  |  |  | Ki (DOR-1 [1]): 0.46 nM
CC[C@@H]1CN2CC[C@]3(Nc4cccc(-c5ccoc5)c4C3=O)C2C[C@@H]1/C(=C\OC)C(=O)OC (stereo partly drawn) [VM1512, (E)-methyl 2-((1'S,6'S,7'S)-6′-ethyl-4-(furan-3-yl)-3-oxo-3′,5′,6′,7′,8′,8a′-hexahydro-2′H-spiro[indoline-2,1′-indolizine]-7′-yl)-3-methoxyacrylate] | 39 nM | 39 nM | 202 nM | 1.5 nM | 0.94 nM | 1.1 mg/kg | 1.5 nM |  |  | respiratory rate (CD1 mice [3]; FIG. 14, 5x antinociceptive ED50: VM1502 3.75 mg/kg sc, VM1512 5.0 mg/kg sc): showed no signs respiratory depression
CC[C@@H]1CN2CC[C@]3(Nc4cccc(C#N)c4C3=O)C2C[C@@H]1/C(=C\OC)C(=O)OC (stereo partly drawn) [VM1509, (E)-methyl 2-((1'S,6'S,7'S)-4-cyano-6′-ethyl-3-oxo-3′,5′,6′,7′,8′,8a′-hexahydro-2′H-spiro[indoline-2,1′-indolizine]-7′-yl)-3-methoxyacrylate] | 73 nM | 47 nM | 721 nM | 0.7 nM | 0.5 nM | 0.32 mg/kg | 2.4 nM | 122% |  | 
CC[C@@H]1CN2CC[C@]3(Nc4ccccc4C3=O)C2C[C@@H]1/C(=C\OC)C(=O)OC (stereo partly drawn) [VM1508, (E)-methyl 2-((1'S,6'S,7'S)-6′-ethyl-3-oxo-3′,5′,6′,7′,8′,8a′-hexahydro-2′H-spiro[indoline-2,1′-indolizine]-7′-yl)-3-methoxyacrylate] | 193 nM | 19 nM | 252 nM | 1.4 nM | 0.46 nM | 0.24 mg/kg | 2.9 nM | 116% |  | 
CC[C@@H]1CN2CCc3c([nH]c4cccc(OC)c34)[C@@H]2C[C@@H]1/C(=C\OC)C(=O)OC [VM1500, (E)-Methyl-2-((2S,3S,12bS)-3-ethyl-8-methoxy-1,2,3,4,6,7,12,12b-octahydroindolo[2,3-a]quinolizin-2-yl)-3-methoxyacrylate] |  |  |  |  |  | 166 mg/kg |  | 65% | 42 µg | 
CC[C@@H]1CN2CC[C@@]3(O)C(=Nc4cccc(OC)c43)C2C[C@@H]1/C(=C\OC)C(=O)OC (stereo partly drawn) [VM1501, (E)-methyl-2-((2S,3S,7aS)-3-ethyl-7a-hydroxy-8-methoxy-1,2,3,4,6,7,7a,12b-octahydroindolo[2,3-a]quinolizin-2-yl)-3-methoxyacrylate] |  |  |  |  | 37 nM | 0.46 mg/kg |  |  | 0.06 µg | respiratory rate (CD1 mice [3]; FIG. 8C: VM1501 2.5 mg/kg sc (5x ED50), 50 min post-injection): did not depress respiratory rate; Ki (KOR-1 [4]): 132 nM; IC50 (KOR-1 [5]): 2520 nM; EC50 (MOR-1 [6]): 53 nM; Ki (DOR-1 [1]): 91 nM; antinociception after NTI (0.5 mg/kg sc) and norBNI (10 mg/kg sc) (CD1 mice [10]): insensitive to NTI and norBNI; antinociception after β-FNA (40 mg/kg sc) (CD1 mice [10]): antagonized by β-FNA; ED50 antinociception icv, Exon11 knockout (129/Sv mice; 129/Sv Exon11 knockout mice): 0.83 µg; ED50 antinociception icv, wild type (129/Sv mice; 129/Sv wild type mice): 0.022 µg; gastrointestinal transit (mice [11]): did not lower transit significantly compared with saline; analgesic response after antisense downregulation (mice [12]): diminished in MOR-1-downregulated mice
CC[C@@H]1CN2CCc3c([nH]c4ccccc34)[C@@H]2C[C@@H]1/C(=C\OC)C(=O)OC [VM1540, Methyl (E)-2-((2S,3S,12bS)-3-ethyl-1,2,3,4,6,7,12,12b-octahydroindolo[2,3-a]quinolizin-2-yl)-3-methoxyacrylate] |  |  |  |  |  |  |  | 74% | 0.1 µg | 
CC[C@@H]1CN2CCc3c([nH]c4cccc(O)c34)[C@@H]2C[C@@H]1/C(=C\OC)C(=O)OC [VM1532, Methyl (E)-2-((2S,3S,12bS)-3-ethyl-8-hydroxy-1,2,3,4,6,7,12,12b-octahydroindolo[2,3-a]quinolizin-2-yl)-3-methoxyacrylate] |  | 769 nM |  | 422 nM | 207 nM |  | 532 nM | 62% | 9 µg | 
